Entries after “also recorded” stand apart in the source; their conditions may differ. Ends that are not written are not given here.
Experiments:
[1] = test system: L. lactis CBC8; experiment: Deferred antagonism assay; format: cell-based; set-up: key: + = Enhanced bioactivity relative to control; − = Bioactivity equal to or less than control; NA = no activity evident; details: producing strain
Outline: (§1)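 Producer strains replicated on GM17 or GM17 x-gal agar, grown overnight, then overlaid with 0.75% agar seeded with indicator strain. Zone size = diameter of clearing minus 5 mm growth diameter. Purified nisins tested by well diffusion at 37° C overnight; activity in AU/ml from reciprocal of highest active dilution × 20.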

[2] = test system: L. lactis CBC7; experiment: Deferred antagonism assay; format: cell-based; set-up: key: + = Enhanced bioactivity relative to control; − = Bioactivity equal to or less than control; NA = no activity evident; details: producing strain
Outline: as §1

[3] = test system: S. aureus CBC4; experiment: Deferred antagonism assay; format: cell-based; set-up: key: + = Enhanced bioactivity relative to control; − = Bioactivity equal to or less than control; NA = no activity evident; details: producing strain
Outline: as §1

[4] = test system: L. monocytogenes CBC1; experiment: Deferred antagonism assay; format: cell-based, Listeria monocytogenes; set-up: key: + = Enhanced bioactivity relative to control; − = Bioactivity equal to or less than control; NA = no activity evident; details: producing strain; L. mono CBC1
Outline: as §1

[5] = test system: L. monocytogenes CBC3; experiment: Deferred antagonism assay; format: cell-based, Listeria monocytogenes; set-up: key: + = Enhanced bioactivity relative to control; − = Bioactivity equal to or less than control; NA = no activity evident; details: producing strain; L. mono CBC3
Outline: as §1

[6] = test system: L. monocytogenes CBC2; experiment: Deferred antagonism assay; format: cell-based, Listeria monocytogenes; set-up: key: + = Enhanced bioactivity relative to control; − = Bioactivity equal to or less than control; NA = no activity evident; details: producing strain; L. mono CBC2
Outline: as §1

[7] = test system: C. sporogenes CBC5; experiment: Deferred antagonism assay; format: cell-based, Clostridium sporogenes; set-up: key: + = Enhanced bioactivity relative to control; − = Bioactivity equal to or less than control; NA = no activity evident; details: producing strain
[8] = test system: L. plantarum CBC6; experiment: Deferred antagonism assay; format: cell-based, Lactobacillus plantarum; set-up: key: + = Enhanced bioactivity relative to control; − = Bioactivity equal to or less than control; NA = no activity evident; details: producing strain
Outline: as §1

[9] = test system: Strep. agalactiae ATCC13813; experiment: Deferred antagonism assay; format: cell-based; details: producing strain, diameter of zone minus 5 mm, average of duplicates
Experimental: (§2) Deferred antagonism assays were performed by replicating strains on GM17 or GM17 x-gal agar plates and allowing them to grow overnight before overlaying with either GM17/BHI/TS/MH agar (0.75% w/v agar) seeded with the appropriate indicator strain. Zone size was calculated as the diameter of the zone of clearing minus the diameter of bacterial growth (5 mm) For higher throughput screening of N20PXX, XM21VX, XXK22T and XXX banks deferred antagonism assays were performed by replicating strains using a 96 pin replicator (Boekel) or spotting 5 μl of a fresh overnight culture on GM17 agar plates and allowing them to grow overnight. […] Additional sets of indicators were employed to further assess/reassess the bioactivity of a number of strains. […] For well-diffusion assays molten agar was cooled to 48° C. and seeded with the appropriate indicator strain. The inoculated medium was rapidly transferred into sterile Petri plates in 50 ml volumes, allowed to solidify and dried. Wells (4.6 mm in diameter) were then made in the seeded plates. Purified nisin and mutant nisins were resuspended in 0.005% acetic acid, serially diluted, 50 μl volumes were dispensed into the aforementioned wells and the plates incubated at 37° C. overnight. Bioactivity was expressed as arbitrary units/ml (AU/ml) and calculated as the reciprocal of the highest dilution that gave a definite zone multiplied by the conversion factor (i.e. 20 when 50 μl was used) (Ryan et al., 1996).
(§3) As a consequence of the enhanced activities of K22T and K22S, a more in-depth investigation of this region was carried out. Saturation mutagenesis was undertaken to create a bank of nisin A hinge derivatives containing the vast majority of possible amino acid substitutions for each position. Although pPTPL was used successfully for random mutagenesis, its relatively large size of approx 10.5 kb was considered unsuitable for the complete plasmid PCR amplification approach utilized for saturation mutagenesis. A smaller (approx 6 kb) E. coli-L. lactis shuttle vector pCI372 was considered to be potentially more useful. Its suitability with respect to the in trans expression of nisA was confirmed by the ability of pDFO5 to restore the nisin positive phenotype. Saturation mutagenesis was performed on each codon using pDF05 and oligonucleotides (Table 5) that replace the specific codon with a NNK triplet, potentially encoding all 20 standard amino acids. Following complete plasmid amplification and introduction into the intermediate Top10 host, sequence analysis of a pooled bank of pDF05 derivatives confirmed randomization. Introduction of these variants into L. lactis NZ9800 allowed the expression of mutant nisin A peptides for further analysis. […] 46 residue conversions were isolated. All strains, regardless of bioactivity, were assessed with a view to comprehensively assessing the consequences of each individual hinge alteration.
(§4) Values are an average of duplicate experiments and represent zone size (diameter of zone minus diameter of bacterial growth (i.e. 5 mm) relative to that of the NZ9800 pCI372nisA control. X=Mutants not identified.

[10] = test system: indicator strains; experiment: Deferred antagonism assays, various indicator strains (summary); format: cell-based; details: for Strain(s) against which the derivative (producing strain) displays enhanced bioactivity: relative to nisin A-producing control, value = strains listed; for bioactivity of the producing strain, in words: in general / against the strains tested
Outline: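 Producer strains were replicated on GM17 or GM17 x-gal agar, grown overnight, then overlaid with GM17, BHI, TS or MH soft agar (0.75% w/v) seeded with the indicator strain. Zone size was taken as the clearing diameter minus the diameter of bacterial growth (5 mm).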

[11] = test system: Staph. aureus DPC5245; experiment: Deferred antagonism assay; format: cell-based; details: producing strain; diameter of zone minus 5 mm; average of duplicates; St. aureus DPC5245
Experimental: as §2, §3, §4

[12] = test system: Staph. aureus ST528 (MRSA); experiment: Deferred antagonism assay; format: cell-based; details: producing strain, diameter of zone minus diameter of bacterial growth (5 mm), average of duplicates
Experimental: as §2, §3, §4

Substance	Bioactivity relative to control [1]	Bioactivity relative to control [2]	Bioactivity relative to control [3]	Bioactivity relative to control [4]	Bioactivity relative to control [5]	Bioactivity relative to control [6]	Bioactivity relative to control [7]	Bioactivity relative to control [8]	zone size relative to that of the NZ9800 pCI372nisA control [9] [%]	Strain(s) against which the derivative (producing strain) displays enhanced bioactivity [10]	zone size relative to that of the NZ9800 pCI372nisA control [11] [%]	zone size relative to that of the NZ9800 pCI372nisA control [12] [%]	bioactivity of the producing strain, in words [10]
NisinA M21Y (ITSISLCTPGCKTGALMGCNYKTATCHCSIHVSK; not fully specified; also: lantibiotic: lanthionine rings and dehydro residues not placed; UniProt P13068 24-57, looked up, variant M21Y) [nisin A derivative, hinge substitution M21Y]	−	+	+	−	+	+	+	−	65	L. monocytogenes CBC2 and CBC3 as well as Staph. aureus CBC4, C. sporogenes CBC5 and L. lactis CBC7; also recorded: L. monocytogenes CBC2, CBC3, S. aureus CBC4, C. sporogenes CBC5 and L. lactis 7			
M21W: nisin A derivative, hinge substitution M21W (ITSISLCTPGCKTGALMGCNWKTATCHCSIHVSK; cysteine pairing not given here; also: lantibiotic nisin-A; UniProt P13068 24-57, looked up, variant M21W)	−	−	−	−	−	−	−	−	0		14	12	
K22R: nisin A derivative, hinge substitution K22R (ITSISLCTPGCKTGALMGCNMRTATCHCSIHVSK; cysteine pairing not given here; also: lantibiotic nisin-A; UniProt P13068 24-57, looked up, variant K22R)									56		45	42.5	greatly reduced bioactivities
NisinA N20T (ITSISLCTPGCKTGALMGCTMKTATCHCSIHVSK; not fully specified; also: lantibiotic nisin: dehydrated residues and thioether rings not placed; UniProt P13068 24-57, looked up, variant N20T) [nisin A derivative, hinge substitution N20T]	−	−	−	−	−	−	+	−		C. sporogenes CBC5	90	79	
N20D: nisin A derivative, hinge substitution N20D (ITSISLCTPGCKTGALMGCDMKTATCHCSIHVSK; cysteine pairing not given here; also: lantibiotic nisin-A; UniProt P13068 24-57, looked up, variant N20D)									0		0	0	devoid of bioactivity
M21T: nisin A derivative, hinge substitution M21T (ITSISLCTPGCKTGALMGCNTKTATCHCSIHVSK; cysteine pairing not given here; also: lantibiotic nisin-A; UniProt P13068 24-57, looked up, variant M21T)									110		112	110	
N20W: nisin A derivative, hinge substitution N20W (ITSISLCTPGCKTGALMGCWMKTATCHCSIHVSK; cysteine pairing not given here; also: lantibiotic nisin-A; UniProt P13068 24-57, looked up, variant N20W)	−	−	−	−	−	−	−	−	0			5.4	
M21R: nisin A derivative, hinge substitution M21R (ITSISLCTPGCKTGALMGCNRKTATCHCSIHVSK; cysteine pairing not given here; also: lantibiotic nisin-A; UniProt P13068 24-57, looked up, variant M21R)									66		61	56.5	greatly reduced bioactivities
M21Q: nisin A derivative, hinge substitution M21Q (ITSISLCTPGCKTGALMGCNQKTATCHCSIHVSK; cysteine pairing not given here; also: lantibiotic nisin-A; UniProt P13068 24-57, looked up, variant M21Q)									98		94	92	slightly diminished bioactivity
N20I: nisin A derivative, hinge substitution N20I (ITSISLCTPGCKTGALMGCIMKTATCHCSIHVSK; cysteine pairing not given here; also: lantibiotic nisin-A; UniProt P13068 24-57, looked up, variant N20I)	−	−	−	−	−	−	−	−	61		49		retention of relatively high levels of bioactivity
